Measurements published in patent US20160058847A1, “IS100- A Highly Effective Enzyme Principle For Use In Dermal Therapeutics, And For Health And Beauty” (Issar Pharmaceuticals Pvt. Ltd., priority 2014, published 2016).
“Also recorded” adds a separate entry of the source.

Tests used:
IS 100 [1] = type: biochemical, wheat; conditions: pH 7, 37° C.; for inhibition of IS 100 activity (in words): Ac-DEVD-AFC hydrolysis, 20 mM HEPES, 0.05% CHAPS, 5% sucrose, FIG. 3
Experimental: As described above, the proteolytic activity of IS 100 can be blocked by using an inhibitor which blocks the active site of the protein enzyme present in the IS 100 principle. In FIG. 2 inhibitor Ac-DEVD-CHO inhibits the activity of IS 100. Several other chemicals or compounds can be tested for their efficacy in blocking the activity of IS 100. In such experiments, IS 100 is mixed with its synthetic substrate Ac-DEVD↓-AFC, and a constant volume of the inhibitor compound is added to check the extent to which the inhibitor blocks the activity of IS 100. In all experimental runs the concentrations of IS 100 and Ac-DEVD↓-AFC are maintained uniformly. The pH for all experiments is kept at 7 and the experiments are run at 37° C.

IS 100 [2] = conditions: Ac-DEVD-AFC hydrolysis
Experimental: Rates of hydrolysis of a synthetic peptide Ac-DEVD↓-AFC (N-acetyl-Asp-Glu-Val-Asp-7-amino-4-trifluoromethylcoumarin) as a function of variables are plotted. Note that the rate, ΔF, is determined from the initial slope of the time-dependent fluorescence trace.
In the present test, 400 μL of IS 100 is combined with 2 μL of a 1 mM solution of Ac-DEVD↓-AFC, and the fluorescence is monitored as a function of time at 37° C.

human recombinant PERK = assay: Proteolytic cleavage of PERK by IS 100, Western analysis; type: biochemical; conditions: inhibitor included in reaction mixture, FIG. 2 lane 1
Experimental: (§1) FIG. 2 illustrates proteolytic cleavage by formulation IS 100 shown by Western analysis of cleavage products of substrate proteins. IS 100 was incubated with the test protein in the presence and absence of the synthetic inhibitor Ac-DEVD-CHO, and the reaction product was immunoblotted using antibody for the test protein.
(§2) These two proteins were chosen simply because of their ready availability with the investigators. In fact, any protein will be a substrate for IS 100. In a typical protocol, IS 100 is incubated with the test substrate protein in the presence and absence of the synthetic inhibitor Ac-DEVD-CHO, and the reaction products are analyzed by electrophoresis, the amount of the uncut test protein is immunoblotted with human anti-PKR or anti-PERK antibodies. Note that immunoblotting of a test protein by using the corresponding antibody will show the status of that protein alone, and not other proteins present in IS 100.

human recombinant PKR = assay: Proteolytic cleavage of PKR by IS 100, Western analysis; type: biochemical; conditions: inhibitor included in reaction mixture, FIG. 2 lane 1
Experimental: as §1, §2

O=C(O)CI [IAA, Iodoacetic acid]
inhibition of IS 100 activity (in words) (IS 100 [1]): completely inhibits the activity; also recorded: almost completely knocks out the activity

[Cl-].[Cl-].[Mg+2] [MgCl2, magnesium chloride]
concentration at which the activity passes through a minimum (IS 100 [2]; FIG. 1F): ~0.1 mM

[Cl-].[Na+] [NaCl, sodium chloride]
effect of NaCl concentration on enzyme activity (IS 100 [2]; FIG. 1D): highly sensitive

O=S(=O)(F)Cc1ccccc1 [PMSF, phenylmethanesulfonyl fluoride]
inhibition of IS 100 activity (in words) (IS 100 [1]): only marginally; also recorded: sign of inhibition is also apparent
inhibition of IS 100 activity (IS 100 [1]; at 1000 μM, FIG. 3C): ~10%

[Cl-].[Cl-].[Zn+2] [ZnCl2, zinc chloride]
Kd (IS 100 [2]; read-out: apparent binding constant, KZn app (inhibition), FIG. 1E): 310 µM

CC(=O)N[C@@H](CC(C)C)C(=O)N[C@@H](CC(C)C)C(=O)N[C@H](C=O)CCCNC(=N)N [leupeptin]
inhibition of IS 100 activity (in words) (IS 100 [1]): influences the activity to some extent
inhibition of IS 100 activity, saturation level (IS 100 [1]; at ~25 μM, FIG. 3B): 30%

Ac-DEVD-CHO
block of PERK cleavage by IS 100 (human recombinant PERK): cleavage is blocked; also recorded: not cleaved
inhibition of IS 100 activity (in words) (IS 100 [1]): inhibits the activity of IS 100 significantly
block of PKR cleavage by IS 100 (human recombinant PKR): cleavage is blocked; also recorded: not cleaved
